The pIC50 is −log10 of the IC50, conventionally taken in molar units.

pIC50: −log10 of the molar value. Where only a bound is given, the exact number is not on record here.

For one assay, the target named is T1, Bloom's syndrome protein (BLM) helicase (Homo sapiens, UniProt P54132).
T1 construct: BLM 642-1290
T1 sequence (P54132 642-1290): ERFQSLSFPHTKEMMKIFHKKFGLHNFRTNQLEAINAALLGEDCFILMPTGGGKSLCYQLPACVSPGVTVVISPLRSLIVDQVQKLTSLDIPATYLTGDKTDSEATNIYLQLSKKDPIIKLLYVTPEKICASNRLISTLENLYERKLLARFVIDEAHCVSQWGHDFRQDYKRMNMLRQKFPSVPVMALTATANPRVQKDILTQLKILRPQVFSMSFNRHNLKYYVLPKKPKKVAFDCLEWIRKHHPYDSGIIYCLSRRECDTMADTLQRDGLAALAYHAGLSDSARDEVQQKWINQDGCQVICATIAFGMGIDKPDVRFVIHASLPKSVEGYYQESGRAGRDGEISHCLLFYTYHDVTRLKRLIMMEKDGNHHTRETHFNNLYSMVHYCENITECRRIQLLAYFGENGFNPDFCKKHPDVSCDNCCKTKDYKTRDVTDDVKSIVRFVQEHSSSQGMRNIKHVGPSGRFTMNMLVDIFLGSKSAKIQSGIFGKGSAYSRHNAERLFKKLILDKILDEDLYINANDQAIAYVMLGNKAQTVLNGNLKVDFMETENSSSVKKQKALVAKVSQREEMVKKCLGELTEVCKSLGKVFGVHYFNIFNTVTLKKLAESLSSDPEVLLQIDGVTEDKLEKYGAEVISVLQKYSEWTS
Description: fluorescence polarization DNA-binding and unwinding assays, EMSA, malachite green ATPase assay with purified BLM642-1290; CD spectral change.
Details: not given
The format is biochemical. Background: Fluorescence polarisation rises when a labelled molecule tumbles more slowly, as on binding a larger partner.
The compound `Cc1cc(C2(c3ccc(O)c(C)c3)OC(=O)c3ccccc32)ccc1O` [AO/854, AO/854/43447428] gave a pIC50 of more than 5.00.

The target of a further assay is T1, Bloom's syndrome protein (BLM) helicase. Description: biochemical. More on the design: fluorescence polarization; displacement of fluorescein-dsDNA bound to BLM642-1290; relative DNA binding activity. Conditions: dsDNA binding; read-out: % of control remaining. The method, then:
First, fluorescein-labeled dsDNA (2 nM) was added into a reaction buffer (20 mM Tris, 25 mM NaCl, 3 mM MgCl2, 0.1 mM DTT, pH 7.9) to detect the fluorescence anisotropy until it was stable. Then, 500 nM BLM^642−1290 was added to equilibrate the DNA substrate, and the fluorescence anisotropy value was then detected. Finally, small molecules with a concentration of 10 μM were added, and the fluorescence anisotropy value was detected until it was stable. The total reaction volume was adjusted to 150 μL by adjusting with ddH2O volume. The ability of AO/854 to inhibit the ability of the BLM^642−1290 to bind to dsDNA and ssDNA was also assessed using a fluorescence polarization assay. The method used was similar to that described above, except different concentrations of AO/854 were added to the reaction. By using the same protocol, we detected AO/854 affecting DNA unwinding of BLM^642−1290. The 0–50 μM concentrations of AO/854 were added to the reaction. In the final step, 0.2 mM of ATP was added to the reaction. The fluorescence anisotropy value was detected until it was stable. The inhibiting ratio of BLM on DNA binding activity and DNA unwinding activity was determined. By using high-throughput virtual and protein-based screening assays, we discovered an isobenzofuranone compound with the desired properties. The flow chart of our work is as follows (Figure 2A). Before the first round of docking using the Autodock Vina, an optimized database (approximately 200,000 compounds) was achieved by filtering using Lipinski’s rule of five and Veber rules and removing duplicate molecules from the Specs database (Figure S1). The top 1000 compounds from the previous step were docked with Autodock (Figure S2). The top 30 small molecules (Table S1) obtained through virtual screening were dissolved in DMSO and prepared into mother liquor at a concentration of 20 mM. We purified a truncated structure of BLM that retained helicase activity in vitro (Figure S3), selected a fluorescein-labeled dsDNA as a substrate, and used a fluorescence polarization assay to determine if the promising compounds disrupted the binding between BLM and DNA.
With `O=[N+]([O-])c1ccc(S(=O)(=O)Oc2ccc(C3(c4ccc(OS(=O)(=O)c5ccc([N+](=O)[O-])cc5)cc4)c4ccccc4-c4ccccc43)cc2)cc1` [compound 1], the remaining activity at 10 µM stood at 98.9%.

`Cc1cc(C2(c3ccc(O)c(C)c3)OC(=O)c3ccccc32)ccc1O` [compound 2]: the remaining activity at 10 µM is 31.5%.

On to `Cc1ccc(-c2csc3nc(SCC(=O)Nc4cccc5ccccc45)n(-c4ccccc4)c(=O)c23)o1` [compound 3], for which the remaining activity at 10 µM came to 94.9%.

In the case of `CCCCC(OC(=O)c1ccc(N2C(=O)C3C4c5ccccc5C(c5ccccc54)C3C2=O)cc1)C(=O)c1ccc(-c2ccccc2)cc1` (centres unmarked) [compound 10], the remaining activity at 10 µM stood at 103%.

`Cc1ccc(-c2csc3nc(SCC(=O)Nc4ccc(C)c(C)c4)n(-c4ccccc4)c(=O)c23)o1` [compound 19]: the remaining activity at 10 µM is 93.9%.

Regarding `O=C1c2cc(S(=O)(=O)Nc3cccc4ccccc34)ccc2-c2ccc(S(=O)(=O)Nc3cccc4ccccc34)cc21` [compound 20], the remaining activity at 10 µM was determined as 96.6%.

As to `CC(=O)Nc1ccc(N2C(=O)c3ccc(C(=O)c4ccc5c(c4)C(=O)N(c4ccc(NC(C)=O)cc4)C5=O)cc3C2=O)cc1` [compound 28], the remaining activity at 10 µM came to 97.3%.

These data come from publication PMC9736344, “Discovery of a Novel Bloom’s Syndrome Protein (BLM) Inhibitor Suppressing Growth and Metastasis of Prostate Cancer” (International Journal of Molecular Sciences, 2022).
